Key:
serum total IgE = assay: Serum total IgE by ELISA in atopic dermatitis mouse model; type: in vivo
Method: (§1) Then, in order to check changes in skin-specific T cells in each animal, single suspensions were prepared using the spleen, skin, and lymph nodes, and T-cells were stained using anti-CD3, anti-CD4, anti-CD8, and anti-CD45 antibodies. Flow cytometry was performed on skin-specific T cells using anti-CD69 and anti-CD103 antibodies, thereby observing the changes in number and distribution of skin-specific T cells by the application of the drug.
(§2) Blood was collected from the mouse heart and then centrifuged at 2,500 rpm for 15 minutes, and the obtained serum was used in the experiment. Then, total IgE was measured using the ELISA MAX™ Delux Set (BioLegend, San Diego, CA, USA) kit. Dermatophagoides farinae (DF)-specific IgE was measured by ELISA using a slight modification of the previously reported method. Briefly, 100 μL of 20 μg/mL DfE in 50 mmol/L carbonate buffer (pH 9.6, Sigma, St. Louis, MO, USA) per well was plated in a 96-well microtiter plate (Corning Inc., Corning)., NY, USA) and incubated overnight at 4° C. Each well was blocked with 3% skim milk in PBS (PBST) containing 0.05% Tween 20 for 1 hour at 37° C. After washing three times with PBST, each well was incubated with a serum sample (diluted to 1:20 [V/V] in 1% BSA) overnight at 4° C. […] The absorbance was measured at 450 nm with a microplate reader (TECAN, Salzburg, Austria).

T cells in the spleen = assay: FACS of T cell fractions in spleen of atopic dermatitis mouse model; type: in vivo
Method: as §1

[1] = system: NC/Nga mice with induced atopic dermatitis; assay: H&E staining of skin of NC/Nga mice (eosinophil count, epidermal thickness); type: in vivo, mouse
Method: as §1
In atopic dermatitis, the eosinophil count is observed to be characteristically high, making it a representative biological indicator that can explain the immunological mechanism of atopic dermatitis. Based on this fact, hematoxylin and eosin (H&E) staining in NC/Nga mice was performed. […] In addition, when atopic dermatitis occurs, the skin thickens due to an excessive inflammatory response.

[2] = system: Dermatophagoides farinae (DF)-specific IgE; assay: Serum total DF-specific IgE by ELISA in atopic dermatitis mouse model; type: in vivo
Method: as §1
Blood was collected from the mouse heart, and then serum total DF-specific IgE (ng/mL) (A450) was measured in a 96-well plate (Corning Inc., Corning, NY, USA) using the ELISA MAX™ Delux Set (BioLegend, San Diego, CA, USA) kit.
as §2, with “C.” for “C. Each well was blocked with 3% skim milk in PBS (PBST) containing 0.05% Tween 20 for 1 hour at 37° C. After washing three times with PBST, each well was incubated with a serum sample (diluted to 1:20 [V/V] in 1% BSA) overnight at 4° C.”

[3] = system: T cells in skin-draining lymph nodes; assay: FACS of T cell fractions in skin-draining lymph nodes of atopic dermatitis mouse model; type: in vivo
Method: as §1

skin-specific T cells [4] = assay: FACS of T cell fractions in skin of atopic dermatitis mouse model; type: in vivo
Method: as §1

skin-specific T cells [5] = assay: FACS of skin-specific T cells in human skin with atopic dermatitis lesions; type: cell-based; conditions: skin immune cells and skin lesions of atopic dermatitis patients, 50 μM and 100 μM, FIG. 13
Method: To verify the effect of the candidate drug on skin-specific T cells in human skin tissue, a single suspension was prepared using the skin from an atopic dermatitis patient. T cells were stained using anti-CD3, anti-CD4, anti-CD8 and anti-CD45 antibodies, and flow cytometry was performed on skin-specific T cells using anti-CD69 and anti-CD103 antibodies, which are skin TRM markers, thereby observing the changes in number and distribution of skin-specific T cells by the application of the drug.

[6] = system: cells isolated from normal skin tissue; assay: Toxicity assay using CCK-8 reagent (cell viability); type: cell-based; conditions: for cell viability: cells from normal skin tissue, overnight, CCK-8
Method: Thereafter, 10 μL of Cell Counting Kit-8 reagent (Dojindo Lot. PR863) was added to each well of the 96-well plate, and after 2 hours, the safety and toxicity of the drug to the normal skin tissue were evaluated by measuring the absorbance at […].

[7] = 100 μM, compared to 0.1% dexamethasone

With idelalisib as the substance, how does the “serum total IgE level” value (serum total IgE; 50 μM and 100 μM, ELISA, FIG. 7) read?
Its value is “decreased the total IgE level in a dose-dependent manner”.

And the “decrease in serum total IgE level compared to positive control” value (serum total IgE; [7])?
The value was “significantly greater”.

What about the “CD69+ T cells and CD103+ T cells in the spleen” value (T cells in the spleen; FIG. 11) of the same substance?
Its value is “decreased statistically significantly”.

What about the “proportion of CD3+ and CD4+ T cells in the spleen” value (T cells in the spleen; FIG. 11) of the same substance?
Its value is “decreased in a dose-dependent manner”.

What about the “CD69+ T cells and CD103+ T cells compared to positive control” value (T cells in the spleen; spleen, compared to 0.1% dexamethasone) of the same substance?
Its value is “significantly decreased in the idelalisib-treated group compared to the 0.1% dexamethasone group”.

And the epidermal thickness ([1]; FIG. 9B)?
The epidermal thickness was “decreased as the concentration of idelalisib increased”.

What about the eosinophil count ([1]; FIG. 9C) of the same substance?
Its eosinophil count is “decreased depending on the idelalisib concentration”.

And the “total DF-specific IgE level” value ([2]; 50 μM and 100 μM, ELISA, FIG. 8)?
The value was “reduced the level of total DF-specific IgE in a dose-dependent manner”.

What about the “total DF-specific IgE level compared to positive control” value [2, 7] of the same substance?
Its value is “significantly decreased even compared to that in the 0.1% dexamethasone group”.

What about the “proportion of CD3+ T cells in skin-draining lymph nodes” value ([3]; 100 μM, FIG. 10A) of the same substance?
Its value is “lowest proportion of CD3+ T cells”.

And the “fraction of CD3+ CD4+ CD103+ T cells in skin-draining lymph nodes” value ([3]; 100 μM, FIG. 10B)?
The value was “statistically significantly lowest”.

What about the “fraction of T cells expressing CD69 among CD3+ CD4+ T cells in skin-draining lymph nodes” value ([3]; FIG. 10B) of the same substance?
Its value is “tended to decrease”.

And the “proportions of CD3+ and CD4+ skin-specific T cells in the skin” value (skin-specific T cells [4]; 50 μM and 100 μM, FIG. 12)?
The value was “significantly decreased in both the 50 μM and 100 μM idelalisib groups in a dose-dependent manner”.

And the “CD69+ T cells and CD103+ T cells in the skin tissues” value (skin-specific T cells [4]; FIG. 12)?
Its value is “statistically significantly decreased”.

What about the “proportions of skin-specific T cells compared to positive control” value (skin-specific T cells [4]; skin, compared to 0.1% dexamethasone) of the same substance?
Its value is “significantly decreased even compared to that in the 0.1% dexamethasone-treated group”.

And the “proportion of skin-specific T cells” value (skin-specific T cells [5])?
Its value is “significantly decreased in both the 50 μM and 100 μM idelalisib groups in a dose-dependent manner”.

What about the cell viability ([6]; 50 μM) of the same substance?
Its cell viability is ≥ 90%.

And the cell viability ([6]; 100 μM)?
The cell viability was ≥ 90%.

And the “toxicity in normal skin tissue” value ([6]; CCK-8, FIG. 4)?
Its value is “no significant toxicity”.
